Tests used:
[1] = tested on: Amaranthus retroflexus (pigweed, AMARE); experiment: Greenhouse postemergence herbicidal effect, visual injury 20-22 d after spraying, pigweed (AMARE); assay type: in vivo; conditions: Flufenacet 60 g/ha alone
Excerpt: (§1) Seeds of the desired test plant species were planted in a 90:10% v/v (volume/volume) mixture of PRO-MIX® BX (Premier Tech Horticulture, Quakertown, Pa., USA) and PROFILE® GREENS GRADE™ (Profile Products LLC, Buffalo Grove, Ill., USA) planting mixture, which typically has a pH of 5.2 to 6.2 and an organic matter content of at least 50 percent, in plastic pots with a surface area of 103.2 square centimeters (cm^2). In some aspects, to ensure good germination and healthy plants, a fungicide treatment and/or other chemical or physical treatment was applied. The plants were grown for 7-36 days (d) in a greenhouse with an approximate 14-hour (h) photoperiod which was maintained at about 23° C. during the day and 22° C. during the night. Nutrients and water were added on a regular basis and supplemental lighting was provided with overhead metal halide 1000-Watt lamps as necessary. The plants were employed for testing when they reached the second or third true leaf stage.
(§2) Emulsifiable concentrates of each of each pyridine carboxylate herbicide (Compound A or Compound B) were prepared at 100 grams acid equivalent per liter (g ae/L). The emulsifiable concentrates also included a safener, cloquintocet-mexyl, at 120 grams active ingredient per liter (g ai/L). An aliquot of each emulsifiable concentrate was placed in a 25 mL glass vial and diluted with an aqueous mixture of 1.25% (v/v) ACTIROB® B esterified rapeseed oil (Bayer Crop Science, Research Triangle Park, N.C., USA) or MSO® Concentrate with LECI-TECH® methylated soybean oil (Loveland Products, Loveland, Colo., USA) to obtain concentrated stock solutions at the highest application rate for each herbicide, based upon a 12 milliliter (mL) application volume at a rate of 187 liters per hectare (L/ha). The concentrated stock solutions were further diluted with an aqueous mixture of 1.25% v/v ACTIROB® B or MSO® Concentrate with LECI-TECH® to obtain stock solutions at reduced application rates for each herbicide. Spray solutions of the herbicide combinations (Compound A or Compound B plus VLCFA synthesis inhibitor herbicide) were prepared by adding weighed amounts or aliquots of the VLCFA synthesis inhibitor herbicide to the stock solutions of Compound A or Compound B to form 12-mL spray solutions in two-way combinations.
(§3) The spray solutions were applied to the plant material with an overhead Mandel track sprayer equipped with 8002E nozzles calibrated to deliver 187 L/ha over an application area of 0.503 square meters (m^2) at a spray height of 18 inches ([…] (cm)) above the average plant canopy. Control plants were sprayed in the same manner with the solvent blank. All pyridine carboxylate herbicide (component a) application rates are given as “g ae/ha” and all VLCFA synthesis inhibitor herbicide (component b) application rates are given as “g ai/ha.”
(§4) The treated plants and control plants were placed in a greenhouse as described above and watered by sub-irrigation to prevent wash-off of the test compounds. After 20-22 d, the condition of the test plants as compared with that of the control plants was determined visually and scored on a scale of 0 to 100 percent where 0 corresponds to no injury and 100 corresponds to complete kill.

[2] = tested on: Cirsium arvense (Canadian thistle, CIRAR); experiment: Greenhouse postemergence herbicidal effect, visual injury 20-22 d after spraying, Canadian thistle (CIRAR); assay type: in vivo; conditions: for % visual injury CIRAR Obs: Anilofos or Pretilachlor 300 g/ha
Excerpt: as §1, §2, §3, §4

[3] = tested on: Helianthus annuus (common sunflower, HELAN); experiment: Greenhouse postemergence herbicidal effect, visual injury 20-22 d after spraying, common sunflower (HELAN); assay type: in vivo; conditions: Flufenacet 60 g/ha alone
Excerpt: as §1
(§5) Emulsifiable concentrates of each of each pyridine carboxylate herbicide (Compound A or Compound B) were prepared at 100 grams acid equivalent per liter (g ae/L). The emulsifiable concentrates also included a safener, cloquintocet-mexyl, at 120 grams active ingredient per liter (g ai/L). […]
as §4

[4] = tested on: Ipomoea hederacea (ivyleaf morningglory, IPOHE); experiment: Greenhouse postemergence herbicidal effect, visual injury 20-22 d after spraying, ivyleaf morningglory (IPOHE); assay type: in vivo; conditions: Flufenacet 60 g/ha alone
Excerpt: as §1, §5, §4

[5] = tested on: Abutilon theophrasti (velvetleaf, ABUTH); experiment: Greenhouse postemergence herbicidal effect, visual injury 20-22 d after spraying, velvetleaf (ABUTH); assay type: in vivo; conditions: Flufenacet 60 g/ha alone
Excerpt: as §1, §5, §4

[6] = tested on: Viola tricolor (wild pansy, VIOTR); experiment: Greenhouse postemergence herbicidal effect, visual injury 20-22 d after spraying, wild pansy (VIOTR); assay type: in vivo; conditions: for % visual injury VIOTR Obs: Anilofos or Pretilachlor 300 g/ha
Excerpt: as §1, §2, §3, §4

[7] = tested on: Matricaria discoidea (pineapple weed, MATMT); experiment: Greenhouse postemergence herbicidal effect, visual injury 20-22 d after spraying, pineapple weed (MATMT); assay type: in vivo; conditions: Anilofos or Pretilachlor 300 g/ha
Excerpt: as §1, §2, §3, §4

[8] = tested on: Cyanus segetum (cornflower, CENCY); experiment: Greenhouse postemergence herbicidal effect, visual injury 20-22 d after spraying, cornflower (CENCY); assay type: in vivo; conditions: Anilofos or Pretilachlor 300 g/ha
Excerpt: as §1, §2, §3, §4

[9] = tested on: Stellaria media (common chickweed, STEME); experiment: Greenhouse postemergence herbicidal effect, visual injury 20-22 d after spraying, common chickweed (STEME); assay type: in vivo; conditions: Anilofos or Pretilachlor 300 g/ha
Excerpt: as §1, §2, §3, §4

[10] = tested on: Salsola kali (Russian thistle, SASKR); experiment: Greenhouse postemergence herbicidal effect, visual injury 20-22 d after spraying, Russian thistle (SASKR); assay type: in vivo; conditions: Anilofos or Pretilachlor 300 g/ha
Excerpt: as §1, §2, §3, §4

[11] = tested on: Viola arvensis (field pansy, VIOAR); experiment: Greenhouse postemergence herbicidal effect, visual injury 20-22 d after spraying, field pansy (VIOAR); assay type: in vivo; conditions: Anilofos or Pretilachlor 300 g/ha
Excerpt: as §1, §2, §3, §4

[12] = tested on: Lamium purpureum (purple deadnettle, LAMPU); experiment: Greenhouse postemergence herbicidal effect, visual injury 20-22 d after spraying, purple deadnettle (LAMPU); assay type: in vivo; conditions: Anilofos or Pretilachlor 300 g/ha
Excerpt: as §1, §2, §3, §4

[13] = tested on: Brassica napus (winter rape, BRSNW); experiment: Greenhouse postemergence herbicidal effect, visual injury 20-22 d after spraying, winter rape (BRSNW); assay type: in vivo; conditions: Anilofos or Pretilachlor 300 g/ha
Excerpt: as §1, §2, §3, §4

[14] = tested on: Sinapis arvensis (wild mustard, SINAR); experiment: Greenhouse postemergence herbicidal effect, visual injury 20-22 d after spraying, wild mustard (SINAR); assay type: in vivo; conditions: Anilofos or Pretilachlor 300 g/ha
Excerpt: as §1, §2, §3, §4

[15] = tested on: Anthemis arvensis (corn chamomile, ANTAR); experiment: Greenhouse postemergence herbicidal effect, visual injury 20-22 d after spraying, corn chamomile (ANTAR); assay type: in vivo; conditions: Anilofos or Pretilachlor 300 g/ha
Excerpt: as §1, §2, §3, §4

[16] = tested on: Kochia scoparia (kochia, KCHSC); experiment: Greenhouse postemergence herbicidal effect, visual injury 20-22 d after spraying, kochia (KCHSC); assay type: in vivo; conditions: Anilofos or Pretilachlor 300 g/ha
Excerpt: as §1, §2, §3, §4

[17] = tested on: Veronica persica (Persian speedwell, VERPE); experiment: Greenhouse postemergence herbicidal effect, visual injury 20-22 d after spraying, Persian speedwell (VERPE); assay type: in vivo; conditions: Anilofos or Pretilachlor 300 g/ha
Excerpt: as §1, §2, §3, §4

[18] = tested on: Polygonum convolvulus (wild buckwheat, POLCO); experiment: Greenhouse postemergence herbicidal effect, visual injury 20-22 d after spraying, wild buckwheat (POLCO); assay type: in vivo; conditions: Anilofos or Pretilachlor 300 g/ha
Excerpt: as §1, §2, §3, §4

[19] = tested on: Matricaria chamomilla (wild chamomile, MATCH); experiment: Greenhouse postemergence herbicidal effect, visual injury 20-22 d after spraying, wild chamomile (MATCH); assay type: in vivo; conditions: Anilofos or Pretilachlor 300 g/ha
Excerpt: as §1, §2, §3, §4

[20] = tested on: Papaver rhoeas (common poppy, PAPRH); experiment: Greenhouse postemergence herbicidal effect, visual injury 20-22 d after spraying, common poppy (PAPRH); assay type: in vivo; conditions: Anilofos or Pretilachlor 300 g/ha
Excerpt: as §1, §2, §3, §4

[21] = tested on: Matricaria inodora (scentless chamomile, MATIN); experiment: Greenhouse postemergence herbicidal effect, visual injury 20-22 d after spraying, scentless chamomile (MATIN); assay type: in vivo; conditions: Anilofos or Pretilachlor 300 g/ha
Excerpt: as §1, §2, §3, §4

[22] = tested on: Triticum aestivum (spring wheat, TRZAS); experiment: Greenhouse postemergence crop phytotoxicity, visual injury 20-22 d after spraying, spring wheat (TRZAS); assay type: in vivo; conditions: Anilofos or Pretilachlor 300 g/ha
Excerpt: as §1, §2, §3, §4

[23] = tested on: Capsella bursa-pastoris (shepherd's purse, CAPBP); experiment: Greenhouse postemergence herbicidal effect, visual injury 20-22 d after spraying, shepherd's purse (CAPBP); assay type: in vivo; conditions: Anilofos or Pretilachlor 300 g/ha
Excerpt: as §1, §2, §3, §4

[24] = tested on: Hordeum vulgare (spring barley, HORVS); experiment: Greenhouse postemergence crop phytotoxicity, visual injury 20-22 d after spraying, spring barley (HORVS); assay type: in vivo; conditions: Anilofos or Pretilachlor 300 g/ha
Excerpt: as §1, §2, §3, §4

winter wheat (TRZAW) = experiment: Greenhouse postemergence crop phytotoxicity, visual injury 20-22 d after spraying, winter wheat (TRZAW); assay type: in vivo, Triticum aestivum; conditions: Anilofos or Pretilachlor 300 g/ha
Excerpt: as §1, §2, §3, §4

[25] = tested on: Veronica hederifolia (ivy-leaved speedwell, VERHE); experiment: Greenhouse postemergence herbicidal effect, visual injury 20-22 d after spraying, ivy-leaved speedwell (VERHE); assay type: in vivo; conditions: Anilofos or Pretilachlor 300 g/ha
Excerpt: as §1, §2, §3, §4

winter barley (HORVW) = experiment: Greenhouse postemergence crop phytotoxicity, visual injury 20-22 d after spraying, winter barley (HORVW); assay type: in vivo, Hordeum vulgare; conditions: Anilofos or Pretilachlor 300 g/ha
Excerpt: as §1, §2, §3, §4

Row | Compound | % visual injury MATMT Obs [7] [%] | % visual injury CENCY Obs [8] [%] | % visual injury STEME Obs [9] [%] | % visual injury CIRAR Obs [2] [%] | % visual injury SASKR Obs [10] [%] | % visual injury VIOAR Obs [11] [%] | % visual injury LAMPU Obs [12] [%] | % visual injury BRSNW Obs [13] [%] | % visual injury SINAR Obs [14] [%] | % visual injury ANTAR Obs [15] [%] | % visual injury KCHSC Obs [16] [%] | % visual injury POLCO Obs [18] [%] | % visual injury MATCH Obs [19] [%] | % visual injury PAPRH Obs [20] [%] | % visual injury MATIN Obs [21] [%] | % visual injury TRZAS Obs [22] [%] | % visual injury VIOTR Obs [6] [%] | % visual injury CAPBP Obs [23] [%] | % visual injury HORVS Obs [24] [%] | % visual injury TRZAW Obs (winter wheat (TRZAW)) [%] | further results
1 | CC(C)N(C(=O)COc1nnc(C(F)(F)F)s1)c1ccc(F)cc1 [Flufenacet, N-(4-fluorophenyl)-N-(1-methylethyl)-2-[[5-(trifluoromethyl)-1,3,4-thiadiazol-2-yl]oxy]acetamide] |  |  |  |  |  |  |  |  |  |  |  |  |  |  |  |  |  |  |  |  | % visual injury Obs [1]: 5%; % visual injury Obs ([2]; CIRAR, Flufenacet 60 g/ha alone): 8%; % visual injury Obs [3]: 15%; % visual injury Obs [4]: 5%; % visual injury Obs [5]: 3%; % visual injury Obs ([6]; VIOTR, Flufenacet 60 g/ha alone): 0%
2 | COP(=S)(OC)SCC(=O)N(c1ccc(Cl)cc1)C(C)C [Anilofos, S-[2-[(4-chlorophenyl)(1-methylethyl)amino]-2-oxoethyl] O,O-dimethyl phosphorodithioate] | 0 | 10 | 0 | 0 | 0 | 0 | 10 | 5 | 0 | 5 | 0 | 0 | 0 | 25 | 0 | 0 | 0 | 0 | 0 | 0 | % visual injury VERPE Obs [17]: 5%; % visual injury VERHE Obs [25]: 0%; % visual injury HORVW Obs (winter barley (HORVW)): 0%
3 | CCCOCCN(C(=O)CCl)c1c(CC)cccc1CC [Pretilachlor, 2-chloro-N-(2,6-diethylphenyl)-N-(2-propoxyethyl)acetamide] | 13 | 10 | 0 | 5 | 25 | 5 | 5 | 5 | 5 | 10 | 5 | 8 | 20 | 10 | 0 | 0 | 5 | 0 | 0 | 0 | % visual injury VERVE Obs [17]: 10%; % visual injury VERHE Obs [25]: 5%; % visual injury HORVW Obs (winter barley (HORVW)): 0%

Source: patent publication US20210386068A1, “COMPOSITIONS COMPRISING PYRIDINE CARBOXYLATE HERBICIDES AND VERY LONG CHAIN FATTY ACID (VLCFA) SYNTHESIS INHIBITOR HERBICIDES” (priority 2018, published 2021)
